According to patent publication US20080221195A1, “1,2-DIARYLACETYLENE DERIVATIVES OF ACYLTRYPTOPHANOLS” (priority 2006, published 2008):

biological target: T1, human FSH receptor (Homo sapiens, UniProt P23945); assay: HTRF assay for measuring cAMP in cells (FSH-antagonistic effect); format: cell-based; settings: hFSHR clone 16 cells (CHO cells stably transfected with the human FSH receptor), in the presence of 1e-9 mol/l hFSH, 37° C. for 2 h
T1 construct: expressed in transfected cells; host or cells: CHO cells (hFSHR clone 16)
T1 sequence (P23945 18-695): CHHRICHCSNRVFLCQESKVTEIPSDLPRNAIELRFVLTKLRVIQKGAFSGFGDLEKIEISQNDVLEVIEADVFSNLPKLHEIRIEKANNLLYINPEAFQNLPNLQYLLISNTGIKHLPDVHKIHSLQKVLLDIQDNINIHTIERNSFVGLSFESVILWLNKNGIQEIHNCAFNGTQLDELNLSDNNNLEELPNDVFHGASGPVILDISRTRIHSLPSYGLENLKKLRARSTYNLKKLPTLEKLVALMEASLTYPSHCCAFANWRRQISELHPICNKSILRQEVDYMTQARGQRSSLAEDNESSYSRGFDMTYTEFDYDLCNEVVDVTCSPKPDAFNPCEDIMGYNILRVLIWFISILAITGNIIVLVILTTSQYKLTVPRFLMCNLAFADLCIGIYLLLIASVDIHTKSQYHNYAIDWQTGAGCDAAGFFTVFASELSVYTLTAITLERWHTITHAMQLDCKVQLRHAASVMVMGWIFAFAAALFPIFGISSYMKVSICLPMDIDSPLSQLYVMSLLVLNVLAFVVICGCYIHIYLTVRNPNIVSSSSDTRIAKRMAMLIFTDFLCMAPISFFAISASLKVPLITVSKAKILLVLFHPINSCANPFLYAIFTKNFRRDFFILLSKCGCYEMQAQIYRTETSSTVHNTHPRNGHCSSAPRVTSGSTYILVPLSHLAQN
Method: HTRF Assay for Measuring cAMP in Cells
The method is based on a competitive immunoassay between native cAMP, which has been produced by the cells, and cAMP which is labelled with cAMPD2 conjugate. The tracer binding was visualized by a monoclonal antibody, anti-cAMP labelled with cryptate [HTRF=homogeneous time-resolved fluorescence].
The specific signal is inversely proportional to the cAMP concentration of the samples employed.
The 665 nm/620 nm fluorescence ratio was evaluated.
Materials used: 96-well plates for the tissue culture, 96-well plates with black edge and black base (e.g. Fluotrac 600 from Greiner), 96-well plates for the substance dilutions of polypropylene and cAMP Femtomolar (4000 wells Kit, CIS Bio International # 62AM5PEJ).
Reagent used: BSA (bovine serum albumin) Fraction V protease-free, IBMX (3-isobutyl-1-methylxanthine), hFSH (human follicle stimulating hormone), Triton X-100 analytical grade, potassium fluoride analytical grade, G 418 (Geneticin) and Accutase.
Buffer 1 (washing and testing buffer) contained PBS, 1 mM CaCl2, 1 mM MgCl2, 0.2% glucose; 0.1% BSA, 1 mM IBMX.
Buffer 2 (2× lysis buffer) contained 1% Triton X-100 in PBS (without CaCl2 and MgCl2).
Buffer 3 (assay buffer) contained 50 mM potassium phosphate buffer (pH 7.0); 800 mM potassium fluoride; 0.2% BSA (always added fresh).
On day 1, the cells were seeded in 96-well plates (3×10^4 cells per well hFSHR clone 16 cells (CHO cells stably transfected with the human FSH receptor in 150 μl of medium). The next day, test substance dilutions were made up. For this purpose, all the substances were diluted in ice-cold buffer 1 (with or without hFSH), and the substance dilutions were placed on ice until applied to the cells. The cell supernatant was then aspirated off, and the cells were washed 2× with 200 μl of buffer 1. The cells were treated with 60 μl of the appropriate substance concentrations at 37° C. for 2 h. The cells were then lysed with 60 μl of buffer 2 (put onto the supernatant) (on a plate shaker at RT for 30 min). The test conjugates (cAMP-D2 and anti-cAMP cryptate, CIS Bio) were diluted in buffer 3 in accordance with the manufacturers' information. The actual mixture for measurement was pipetted into a black 96-well plate (in each case 15 μl of the cell lysate diluted with 35 μl of buffer 1; firstly 25 μl of cAMP-D2 conjugate were pipetted and, after 10 min, 25 μl of the anti-cAMP cryptate were added). This is followed by incubation at RT for 90 minutes. The measurement was carried out in a PheraStar (BMG).
Dose-effect curve (hFSH) for the human receptor: 1e-8, 3e-9, 1e-9, 3e-10, 1e-10, 3e-11, 1e-11, 3e-12 mol/l.
The test substances were employed in suitable dilutions in the absence (test for agonism) and in the presence of 1e-9 mol/l hFSH.
The values of the well ratio were averaged and then entered directly in SigmaPlot versus the concentrations. The maximum and minimum values were determined for each plate, and half the difference is to be regarded as IC50.

Structure (SMILES) | IC50
COc1ccc(C#Cc2ccc(OC(C)C)c(C(=O)N[C@@H](CO)Cc3c[nH]c4ccccc34)c2)cc1F [Example 30, 5-(3-Fluoro-4-methoxy-phenylethynyl)-N-[(R)-2-hydroxy-1-(1H-indol-3-ylmethyl)-ethyl]-2-isopropoxy-benzamide] | 150 nM
Cc1cc(C)cc(C#Cc2ccc(OC(C)C)c(C(=O)N[C@@H](CO)Cc3c[nH]c4ccccc34)c2)c1 [Example 40, 5-(3,5-Dimethyl-phenylethynyl)-N-[(R)-1-hydroxymethyl-2-(1H-indol-3-yl)-ethyl]-2-isopropoxy-benzamide] | 500 nM
CC(C)Oc1ccc(C#Cc2cncnc2)cc1C(=O)N[C@@H](CO)Cc1c[nH]c2ccccc12 [Example 46, N-[(R)-1-Hydroxymethyl-2-(1H-indol-3-yl)-ethyl]-2-isopropoxy-5-pyrimidin-5-ylethynyl-benzamide] | 150 nM
Cc1ccc(C)c(C#Cc2ccc(OC(C)C)c(C(=O)N[C@@H](CO)Cc3c[nH]c4ccccc34)c2)c1 [Example 48, 5-(2,5-Dimethyl-phenylethynyl)-N-[(R)-1-hydroxymethyl-2-(1H-indol-3-yl)-ethyl]-2-isopropoxy-benzamide] | 30 nM
CC(C)Oc1ccc(C#Cc2ccc3ccccc3c2)cc1C(=O)N[C@@H](CO)Cc1c[nH]c2ccccc12 [Example 52, N-[(R)-1-Hydroxymethyl-2-(1H-indol-3-yl)-ethyl]-2-isopropoxy-5-naphthalen-2-ylethynyl-benzamide] | 80 nM
CC(C)Oc1ccc(C#Cc2ccccc2CC(=O)O)cc1C(=O)N[C@@H](CO)Cc1c[nH]c2ccccc12 [Example 58, (2-{3-[(R)-1-Hydroxymethyl-2-(1H-indol-3-yl)-ethylcarbamoyl]-4-isopropoxy-phenylethynyl}-phenyl)-acetic acid] | 2500 nM
CC(C)Oc1ccc(C#Cc2cncc(C3=NNC(=O)C3)c2)cc1C(=O)N[C@@H](CO)Cc1c[nH]c2ccccc12 [Example 66, N—[(R)-1-Hydroxymethyl-2-(1H-indol-3-yl)-ethyl]-2-isopropoxy-5-[5-(5-oxo-4,5-dihydro-1H-pyrazol-3-yl)-pyridin-3-ylethynyl]-benzamide] | 10 nM
CC(C)Oc1ccc(C#Cc2ccc3c(c2)C(=O)NCC3)cc1C(=O)N[C@@H](CO)Cc1c[nH]c2ccccc12 [Example 68, N-[(R)-1-Hydroxymethyl-2-(1H-indol-3-yl)-ethyl]-2-isopropoxy-5-(1-oxo-1,2,3,4-tetrahydro-isoquinolin-7-ylethynyl)-benzamide] | 30 nM
CNC(=O)CCCc1ccc(C#Cc2ccc(OC(C)C)c(C(=O)N[C@@H](CO)Cc3c[nH]c4ccccc34)c2)cc1 [Example 70, N-[(R)-1-Hydroxymethyl-2-(1H-indol-3-yl)-ethyl]-2-isopropoxy-5-[4-(3-methylcarbamoyl-propyl)-phenylethynyl]-benzamide] | 45 nM
CNC(=O)c1ccc(C#Cc2cccc(C(=O)N[C@@H](CO)Cc3c[nH]c4ccccc34)c2)cc1 [Example 72, N-[(R)-1-Hydroxymethyl-2-(1H-indol-3-yl)-ethyl]-5-(4-methylcarbamoyl-phenylethynyl)-benzamide] | 2500 nM
CC(C)Oc1ccc(C#Cc2ccccc2)cc1C(=O)NC(CO)Cc1c[nH]c2cc(F)ccc12 (stereo not shown) [Example 75, N-[2-(6-Fluoro-1H-indol-3-yl)-1-hydroxymethyl-ethyl]-2-isopropoxy-5-phenylethynyl-benzamide] | 100 nM
CNC(=O)c1cccc(C#Cc2ccc(Cl)c(C(=O)N[C@@H](CO)Cc3c[nH]c4ccccc34)c2)c1 [Example 79, 2-Chloro-N-[(R)-2-hydroxy-1-(1H-indol-3-ylmethyl)-ethyl]-5-(3-methylcarbamoyl-phenylethynyl)-benzamide] | 3500 nM
CNC(=O)c1cccc(C#Cc2ccc(Cl)c(C(=O)NC(CO)Cc3c[nH]c4cc(F)ccc34)c2)c1 (stereo not shown) [Example 83, 2-Chloro-N-[2-(6-fluoro-1H-indol-3-yl)-1-hydroxymethyl-ethyl]-5-(3-methylcarbamoyl-phenylethynyl)-benzamide] | 700 nM
CC(C)Oc1ccc(C#Cc2ccc(C(=O)O)o2)cc1C(=O)N[C@@H](CO)Cc1c[nH]c2ccccc12 [Example 88, 5-{3-[(R)-1-Hydroxymethyl-2-(1H-indol-3-yl)-ethylcarbamoyl]-4-isopropoxy-phenylethynyl}-furan-2-carboxylic acid] | 60 nM
Cc1ccc(C#Cc2ccc(OC(C)C)c(C(=O)N[C@@H](CO)Cc3c[nH]c4ccccc34)c2)nc1 [Example 94, N-[(R)-1-Hydroxymethyl-2-(1H-indol-3-yl)-ethyl]-2-isopropoxy-5-(5-methyl-pyridin-2-ylethynyl)-benzamide] | 80 nM
CC(C)Oc1ccc(C#Cc2cncc(C(N)=O)c2)cc1C(=O)N[C@@H](CO)Cc1c[nH]c2ccccc12 [Example 97, 5-{3-[(R)-1-Hydroxymethyl-2-(1H-indol-3-yl)-ethylcarbamoyl]-4-isopropoxy-phenylethynyl}-nicotinamide] | 15 nM
CC(C)Oc1ccc(C#Cc2ccsc2)cc1C(=O)N[C@@H](CO)Cc1c[nH]c2ccccc12 [Example 100, N-[(R)-2-Hydroxy-1-(1H-indol-3-ylmethyl)-ethyl]-2-isopropoxy-5-thiophen-3-ylethynyl-benzamide] | 70 nM
CC(C)Oc1ccc(C#Cc2ccc(OCCN(C)C)cc2)cc1C(=O)N[C@@H](CO)Cc1c[nH]c2ccccc12 [Example 103, 5-[4-(2-Dimethylamino-ethoxy)-phenylethynyl]-N-[(R)-1-hydroxymethyl-2-(1H-indol-3-yl)-ethyl]-2-isopropoxy-benzamide] | 1300 nM
CC(C)Oc1ccc(C#Cc2ccc(C3(O)CCNCC3)cc2)cc1C(=O)N[C@@H](CO)Cc1c[nH]c2ccccc12 [Example 106, N-[(R)-1-Hydroxymethyl-2-(1H-indol-3-yl)-ethyl]-5-[4-(4-hydroxy-piperidin-4-yl)-phenylethynyl]-2-isopropoxy-benzamide] | 4000 nM
CC(C)Oc1ccc(C#Cc2ccc(C#N)cc2)cc1C(=O)N[C@@H](CO)Cc1c[nH]c2ccccc12 [Example 110, 5-(4-Cyano-phenylethynyl)-N-[(R)-1-hydroxymethyl-2-(1H-indol-3-yl)-ethyl]-2-isopropoxy-benzamide] | 350 nM
CC(C)Oc1ccc(C#Cc2ccc(-c3ccccc3)cc2)cc1C(=O)N[C@@H](CO)Cc1c[nH]c2ccccc12 [Example 111, 5-Biphenyl-4-ylethynyl-N-[(R)-1-hydroxymethyl-2-(1H-indol-3-yl)-ethyl]-2-isopropoxy-benzamide] | 2000 nM
CC(C)Oc1ccc(C#Cc2ccc3[nH]ncc3c2)cc1C(=O)N[C@@H](CO)Cc1c[nH]c2ccccc12 [Example 113, N-[(R)-2-Hydroxy-1-(1H-indol-3-ylmethyl)-ethyl]-5-(1H-indazol-5-ylethynyl)-2-isopropoxy-benzamide] | 25 nM
